Reference: ChEMBL document CHEMBL1124638, “2,4-Diamino-5-benzylpyrimidines and analogues as antibacterial agents. 10. 2,4-Diamino-5-(6-quinolylmethyl)- and -[(tetrahydro-6-quinolyl)methyl]pyrimidine derivatives. Further specificity studies” (J Med Chem, 1989)
In brackets after ≈: the same amount, converted by molar mass.

Key:
[1] = test system: Escherichia coli; assay: Comparative in vitro antibacterial activity with trimethoprim against Escherichia coli CN314; type: functional
[2] = test system: Vibrio cholerae; assay: Comparative in vitro antibacterial activity with trimethoprim against Vibrio cholerae ATCC 14035; type: functional
[3] = test system: Mycolicibacterium smegmatis; assay: Comparative in vitro antibacterial activity with trimethoprim against Mycobacterium smegmatis S 3254; type: functional
[4] = test system: Staphylococcus aureus; assay: Comparative in vitro antibacterial activity with trimethoprim against Staphylococcus aureus CN491; type: functional
[5] = test system: Streptococcus agalactiae; assay: Comparative in vitro antibacterial activity with trimethoprim against Streptococcus agalactiae CN1143; type: functional
[6] = test system: Shigella flexneri; assay: Comparative in vitro antibacterial activity with trimethoprim against Shigella flexneri CN6007; type: functional
[7] = test system: Proteus vulgaris; assay: Comparative in vitro antibacterial activity with trimethoprim against Proteus vulgaris CN329; type: functional
[8] = test system: Klebsiella pneumoniae; assay: Comparative in vitro antibacterial activity with trimethoprim against Klebsiella pneumoniae CN3632; type: functional
[9] = biological target: T1, Dihydrofolate reductase (Rattus norvegicus, UniProt Q920D2); assay: Inhibitory activity against dihydrofolate reductase in rat liver; conditions: read-out: I50
T1 sequence (Q920D2 whole entry): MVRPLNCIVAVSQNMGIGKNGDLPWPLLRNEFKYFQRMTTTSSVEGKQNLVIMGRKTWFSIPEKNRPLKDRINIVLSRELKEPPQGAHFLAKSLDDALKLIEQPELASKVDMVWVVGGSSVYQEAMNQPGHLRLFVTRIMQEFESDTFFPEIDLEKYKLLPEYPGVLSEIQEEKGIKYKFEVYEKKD

[10] = test system: Klebsiella aerogenes; assay: Comparative in vitro antibacterial activity with trimethoprim against Enterobacter aerogenes 2200/86; type: functional
[11] = test system: Streptococcus pyogenes; assay: Comparative in vitro antibacterial activity of compound with trimethoprim against Streptococcus pyogenes CN10; type: functional
[12] = test system: Citrobacter freundii; assay: Comparative in vitro antibacterial activity with trimethoprim against Citrobacter freundii 2200/77; type: functional
[13] = Comparative in vitro antibacterial activity with trimethoprim against Salmonella typhi CN512; type: functional, salmonella typhosa
[14] = test system: Serratia marcescens; assay: Comparative in vitro antibacterial activity with trimethoprim against Serratia marcescens CN2398; type: functional
[15] = test system: Enterococcus faecalis; assay: Comparative in vitro antibacterial activity with trimethoprim against Streptococcus faecalis CN478; type: functional
[16] = test system: Pasteurella multocida; assay: Comparative in vitro antibacterial activity with trimethoprim against Pasteurella multocida ATCC 6587; type: functional
[17] = test system: Proteus mirabilis; assay: Comparative in vitro antibacterial activity with trimethoprim against Proteus mirabilis S2409; type: functional
[18] = test system: Salmonella typhimurium; assay: Comparative in vitro antibacterial activity with trimethoprim against Salmonella Typhimurium S 8587; type: functional, Salmonella enterica subsp. enterica serovar Typhimurium; conditions: Salmonella enterica
[19] = test system: Bordetella bronchiseptica; assay: Comparative in vitro antibacterial activity with trimethoprim against Bordetella bronchiseptica CN385; type: functional

Row | SMILES | MIC [1] [µg/mL] | MIC [2] [µg/mL] | MIC [3] [µg/mL] | MIC [4] [µg/mL] | MIC [5] [µg/mL] | MIC [6] [µg/mL] | MIC [7] [µg/mL] | MIC [8] [µg/mL] | IC50 [9] [µM] | MIC [10] [µg/mL] | MIC [11] [µg/mL] | MIC [12] [µg/mL] | MIC [13] [µg/mL] | MIC [14] [µg/mL] | MIC [15] [µg/mL] | MIC [16] [µg/mL] | MIC [17] [µg/mL] | MIC [18] [µg/mL] | MIC [19] [µg/mL]
1 | COc1cc(Cc2cnc(N)nc2N)cc2c(C)cc(C)nc12 | 3 (≈ 9.7 µM) | 0.3 (≈ 0.97 µM) | 1 (≈ 3.23 µM) | 0.3 (≈ 0.97 µM) | 1 (≈ 3.23 µM) | 3 (≈ 9.7 µM) | 3 (≈ 9.7 µM) | 1 (≈ 3.23 µM) | 43 | 3 (≈ 9.7 µM) | 0.1 (≈ 0.323 µM) | 3 (≈ 9.7 µM) | 1 (≈ 3.23 µM) | 1 (≈ 3.23 µM) | 1 (≈ 3.23 µM) | 1 (≈ 3.23 µM) | 0.3 (≈ 0.97 µM) | 3 (≈ 9.7 µM) | 3 (≈ 9.7 µM)
2 | Cc1ccnc2c(N)cc(Cc3cnc(N)nc3N)cc12 | 10 (≈ 35.7 µM) | 3 (≈ 10.7 µM) | 10 (≈ 35.7 µM) | 3 (≈ 10.7 µM) | 10 (≈ 35.7 µM) | 30 (≈ 107 µM) | 3 (≈ 10.7 µM) | 10 (≈ 35.7 µM) | 32 | 10 (≈ 35.7 µM) | – | 10 (≈ 35.7 µM) | 10 (≈ 35.7 µM) | 30 (≈ 107 µM) | 3 (≈ 10.7 µM) | 10 (≈ 35.7 µM) | 1 (≈ 3.57 µM) | 30 (≈ 107 µM) | 30 (≈ 107 µM)
3 | COc1cc(Cc2cnc(N)nc2N)cc2c1NCCC2C (stereo unspecified) | 3 (≈ 10 µM) | 1 (≈ 3.34 µM) | 1 (≈ 3.34 µM) | 1 (≈ 3.34 µM) | 1 (≈ 3.34 µM) | 10 (≈ 33.4 µM) | 10 (≈ 33.4 µM) | 3 (≈ 10 µM) | – | 3 (≈ 10 µM) | 1 (≈ 3.34 µM) | 10 (≈ 33.4 µM) | 10 (≈ 33.4 µM) | 3 (≈ 10 µM) | 1 (≈ 3.34 µM) | 3 (≈ 10 µM) | 3 (≈ 10 µM) | 10 (≈ 33.4 µM) | 10 (≈ 33.4 µM)
4 | COc1cc(Cc2cnc(N)nc2N)cc2c(C)ccnc12 | 1 (≈ 3.39 µM) | 0.3 (≈ 1.02 µM) | 0.3 (≈ 1.02 µM) | 0.3 (≈ 1.02 µM) | 1 (≈ 3.39 µM) | 1 (≈ 3.39 µM) | 1 (≈ 3.39 µM) | 1 (≈ 3.39 µM) | – | 1 (≈ 3.39 µM) | 1 (≈ 3.39 µM) | 3 (≈ 10.2 µM) | 1 (≈ 3.39 µM) | 1 (≈ 3.39 µM) | 1 (≈ 3.39 µM) | 1 (≈ 3.39 µM) | 1 (≈ 3.39 µM) | 3 (≈ 10.2 µM) | 3 (≈ 10.2 µM)
5 | COCCOc1cc(Cc2cnc(N)nc2N)cc2cccnc12 | 100 (≈ 307 µM) | 30 (≈ 92.2 µM) | 3 (≈ 9.22 µM) | 10 (≈ 30.7 µM) | 10 (≈ 30.7 µM) | 100 (≈ 307 µM) | > 100 | 100 (≈ 307 µM) | 9.9 | 100 (≈ 307 µM) | 3 (≈ 9.22 µM) | 300 (≈ 922 µM) | 100 (≈ 307 µM) | > 10 | 3 (≈ 9.22 µM) | 30 (≈ 92.2 µM) | > 30 | 100 (≈ 307 µM) | 30 (≈ 92.2 µM)
6 | Cc1ccnc2ccc(Cc3cnc(N)nc3N)c(N)c12 | 100 (≈ 357 µM) | 100 (≈ 357 µM) | 100 (≈ 357 µM) | 30 (≈ 107 µM) | 100 (≈ 357 µM) | 100 (≈ 357 µM) | > 100 | 100 (≈ 357 µM) | 15 | 300 (≈ 1070 µM) | 30 (≈ 107 µM) | 100 (≈ 357 µM) | 100 (≈ 357 µM) | > 10 | 10 (≈ 35.7 µM) | 300 (≈ 1070 µM) | 30 (≈ 107 µM) | 100 (≈ 357 µM) | > 100
7 | Cc1ccnc2c([N+](=O)[O-])cc(Cc3cnc(N)nc3N)cc12 | 10 (≈ 32.2 µM) | 1 (≈ 3.22 µM) | 1 (≈ 3.22 µM) | 1 (≈ 3.22 µM) | 1 (≈ 3.22 µM) | 10 (≈ 32.2 µM) | 10 (≈ 32.2 µM) | 10 (≈ 32.2 µM) | 5.7 | 10 (≈ 32.2 µM) | 1 (≈ 3.22 µM) | 10 (≈ 32.2 µM) | 3 (≈ 9.67 µM) | 30 (≈ 96.7 µM) | 3 (≈ 9.67 µM) | 3 (≈ 9.67 µM) | 10 (≈ 32.2 µM) | 10 (≈ 32.2 µM) | 3 (≈ 9.67 µM)
8 | Nc1ncc(Cc2ccc3ncccc3c2)c(N)n1 | 3 (≈ 11.9 µM) | 3 (≈ 11.9 µM) | 0.3 (≈ 1.19 µM) | 30 (≈ 119 µM) | 3 (≈ 11.9 µM) | 10 (≈ 39.8 µM) | 10 (≈ 39.8 µM) | 3 (≈ 11.9 µM) | 18 | 3 (≈ 11.9 µM) | 3 (≈ 11.9 µM) | 10 (≈ 39.8 µM) | 10 (≈ 39.8 µM) | 3 (≈ 11.9 µM) | 3 (≈ 11.9 µM) | 10 (≈ 39.8 µM) | 3 (≈ 11.9 µM) | 10 (≈ 39.8 µM) | 10 (≈ 39.8 µM)
9 | Cc1ccnc2ccc(Cc3cnc(N)nc3N)cc12 | 3 (≈ 11.3 µM) | 1 (≈ 3.77 µM) | 1 (≈ 3.77 µM) | 1 (≈ 3.77 µM) | 1 (≈ 3.77 µM) | 3 (≈ 11.3 µM) | 1 (≈ 3.77 µM) | 1 (≈ 3.77 µM) | 22 | 3 (≈ 11.3 µM) | 3 (≈ 11.3 µM) | 3 (≈ 11.3 µM) | 1 (≈ 3.77 µM) | 1 (≈ 3.77 µM) | 1 (≈ 3.77 µM) | 1 (≈ 3.77 µM) | 1 (≈ 3.77 µM) | 3 (≈ 11.3 µM) | 1 (≈ 3.77 µM)
10 | COc1cc(Cc2cnc(N)nc2N)cc2cccnc12 | 3 (≈ 10.7 µM) | 1 (≈ 3.55 µM) | 1 (≈ 3.55 µM) | 3 (≈ 10.7 µM) | 3 (≈ 10.7 µM) | 3 (≈ 10.7 µM) | 3 (≈ 10.7 µM) | 3 (≈ 10.7 µM) | 12 | 3 (≈ 10.7 µM) | 3 (≈ 10.7 µM) | 10 (≈ 35.5 µM) | 3 (≈ 10.7 µM) | 1 (≈ 3.55 µM) | 3 (≈ 10.7 µM) | 3 (≈ 10.7 µM) | 3 (≈ 10.7 µM) | 3 (≈ 10.7 µM) | 30 (≈ 107 µM)
11 | Nc1ncc(Cc2ccc3c(c2)CCCN3)c(N)n1 | 30 (≈ 117 µM) | 10 (≈ 39.2 µM) | 3 (≈ 11.7 µM) | 30 (≈ 117 µM) | 10 (≈ 39.2 µM) | 30 (≈ 117 µM) | 10 (≈ 39.2 µM) | 10 (≈ 39.2 µM) | 140 | 10 (≈ 39.2 µM) | 10 (≈ 39.2 µM) | 10 (≈ 39.2 µM) | 10 (≈ 39.2 µM) | 10 (≈ 39.2 µM) | 10 (≈ 39.2 µM) | 10 (≈ 39.2 µM) | 10 (≈ 39.2 µM) | 10 (≈ 39.2 µM) | 10 (≈ 39.2 µM)
